Measured values as given in the METLIN SMRT retention time set (Domingo-Almenara et al. 2019).

Experiment: gradient 5% acetonitrile 3 min, to 50% in 2 min, to 85% in 15 min, held 3 min, 100 µL/min
Details: column: Zorbax Extend-C18 2.1 x 50 mm; eluents: water / acetonitrile, 0.1% formic acid
Method in brief: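 A Zorbax Extend-C18 column (2.1 × 50 mm, 1.8 μm) run at 100 μL/min with water and acetonitrile, both containing 0.1% formic acid, separated mixtures of ~100 pure standards. The HPLC was coupled to a quadrupole time-of-flight mass spectrometer operated in positive and negative ionization mode, with dead and dwell volumes of 40 μL and 900 μL. Each retention time was taken from a computationally picked adduct peak that was then manually inspected.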

Row | Structure (SMILES) | RP-LC retention time [s]
1 | O=C(c1ccc(-c2cncnc2)nc1)N1CCN(c2ccccc2Cl)CC1 | 829
2 | CC(=O)NCCSc1c(-c2ccc(Cl)cc2)[nH]c2ccccc12 | 800
3 | Cc1cccc(C)c1Nc1c(-c2ccccc2F)nc2ccc(Br)cn12 | 893
4 | Cc1cc(Cl)ccc1S(=O)(=O)N(C)C1CCc2nn(CC3CC3)c(=O)n2CC1 (stereo not drawn) | 772
5 | CCN1C(=O)COc2ccc(-c3noc(-c4ccc(OC)cc4)n3)cc21 | 1130
6 | Cc1ccc(Cl)cc1N(C)C(=O)Cn1cnc2nc3c(cc2c1=O)CCCC3 | 809
7 | COc1cc([C@@H]2c3cc4c(cc3[C@H](O)[C@@H](CO)[C@@H]2C(=O)NCc2ccccc2)OCO4)cc(OC)c1OC | 700
8 | CCOc1ccc(NC(=O)c2cnc(N3CCN(C)CC3)nc2N)cc1 | 602
9 | CCOc1ccc(N2C(=O)CC(c3ccc(OC)c(OC)c3)CC2=O)cc1 | 841
10 | CC1CCN(Cc2nc(-c3ccc(N4CCCC(C)C4)nc3)no2)CC1 (stereo not drawn) | 695
11 | CC(=O)N[C@@H]1CN(C(=O)COc2ccc(Cl)cc2)C[C@H]1CO | 633
12 | COc1ccc(NC(=O)N2[C@H]3CC[C@@H]2c2cncnc2C3)cc1OC | 839
13 | Cn1cnc(S(=O)(=O)N2CCC(C(=O)NCc3ccccc3)CC2)c1 | 660
14 | COc1cc(OC)c(NC(=O)N2CCc3c(c(C(=O)N4CCOCC4)nn3C)C2)cc1Cl | 692
15 | CC1CCN(C(=O)c2ccc(-c3ccsc3)nc2)CC1 | 876
16 | Cc1ccc(N(Cc2ccccc2)S(=O)(=O)c2ccc3nnc(C)n3c2)cc1 | 884
17 | CC(C)c1csc(-c2csc(S(=O)(=O)NCc3ccccc3)c2)n1 | 1040
18 | COCCCNC(=O)N1CCN(Cc2nc3cc(C(=O)N(C)C)ccc3n2C)CC1 | 560
19 | O=C(CSc1ncccn1)N1CCC(Cc2ccccc2)CC1 | 820
20 | O=S(=O)(NCC(O)(c1ccccc1)C(F)(F)F)c1ccc(F)c(Cl)c1 (stereo not drawn) | 922
21 | Cc1ccc(NC(=O)N(C)CC2CCOC2)cc1F (stereo not drawn) | 722
22 | COc1ccc(-c2nnc(-c3ccc(Cl)c(S(=O)(=O)N4CCCCC4)c3)o2)cc1OC | 1070

Row | Structure (SMILES) | RP-LC retention time [s]
23 | Cc1oc(C2CCN(C(=O)Nc3ccc(Cl)cc3F)CC2)nc1C(=O)N1CCCCC1 | 885
24 | COc1ccc(Cl)cc1NC(=O)Cn1c(=O)n(-c2ccc(C)cc2)c(=O)c2c1cc(C)n2C | 984
25 | O=C(NCC(F)(F)F)c1cnccn1 | 597
26 | O=S(=O)(c1ccc2c(c1)CCC2)N1CCCn2nc(-c3ccncc3)cc2C1 | 687
27 | COc1cccc(-c2noc(Cn3c(=O)n(-c4cccc(OC)c4)c(=O)c4sccc43)n2)c1 | 970
28 | COc1ccc(Cl)cc1CC1C(=O)Nc2ccccc21 (stereo not drawn) | 921
29 | Cc1ccc(C2CCCN2C(=O)Cc2ccsc2)cc1 (stereo not drawn) | 632
30 | O=C(CN1CCCCCC1)NCC12CCCC=C1NC(=O)CC2 (stereo not drawn) | 567
31 | O=C(CSc1nc2ccccc2s1)N1CCN(C(=O)C2CC2c2ccccc2)CC1 (stereo not drawn) | 867
32 | Cc1ccc(NC(=O)N2CCCC(C)(C(=O)NCc3ccc(F)cc3)C2)cc1F (stereo not drawn) | 959
33 | CCC(=O)Nc1ccc(C2(C(=O)NCCC(C)C)CCCCC2)cc1 | 936
34 | O=C(Nc1ccc2c(c1)CN(S(=O)(=O)c1ccccc1)CC2)NC1CCCCC1 | 901
35 | CCN(CCCNC(=O)C1CCN(c2ncnc3c2oc2ccccc23)CC1)c1ccccc1 | 611
36 | CCc1nnc(-c2ccc(=O)n(CC(=O)Nc3ccc(C)cc3C)c2)o1 | 693
37 | O=C(c1ccccn1)N1CC(c2nc(-c3ccccc3)no2)C2(CCOCC2)C1 (stereo not drawn) | 743
38 | O=C(Cc1cccs1)N1CCCC1(CO)Cc1ccccc1 (stereo not drawn) | 853
39 | C[C@@H](NC(=O)c1cccc(F)c1)C(=O)NCc1cscn1 | 636
40 | CCn1cc(-c2ccc(Cl)cc2)cc1C(=O)N1CCOCC1 | 953
41 | Cc1cccc(CC(=O)N2C[C@@H]3C[C@H](NS(C)(=O)=O)[C@H]2C3)c1 | 662
42 | COC(=O)c1cccc(NC(=O)N2C[C@@H]3C[C@H]2C[C@@H]3NC(=O)c2ccccc2)c1 | 736
43 | COc1ccc(-c2c(C(=O)NCc3cccnc3)nn3c(C)cc(C)nc23)cc1S(=O)(=O)N1CCCC1 | 638
44 | COc1ccc(-c2nc3cnccn3c2Nc2ccc(OC)c(OC)c2)cc1 | 690

Row | Structure (SMILES) | RP-LC retention time [s]
45 | COc1ccccc1CNS(=O)(=O)c1cc(-c2cc(C(F)(F)F)on2)sc1C | 1120
46 | O=C(Cn1nc2c(Oc3ccccc3)nccn2c1=O)Nc1cc(C(F)(F)F)ccc1Cl | 960
47 | COCC(C)NC(=O)c1cc2c(s1)N(CC1CC1)CCCC2 (stereo not drawn) | 976
48 | CC(C)C(=O)Nc1ccc(-n2cnc(C(=O)NC3CCCCCC3)c2)nc1 | 806
49 | Cc1cccc(S(=O)(=O)Nc2cccn3ncnc23)c1 | 729
50 | CCn1cnc(S(=O)(=O)N2CCC(C(=O)NCc3ccc4c(c3)OCO4)CC2)c1 | 684
51 | Cc1ccc(Nc2nc(NCc3cccnc3)nc3[nH]ncc23)cc1 | 540
52 | CN(C)C(=O)CN1C(=O)COc2ccc(C(=O)N3CCN(c4ccccc4)CC3)cc21 | 702
53 | Cc1nn(CC(=O)NCc2ccc(F)cc2Cl)c(=O)c2noc(C)c12 | 721
54 | Cc1ccc(S(=O)(=O)N2C[C@H](c3nc(-c4cccnc4)no3)[C@@H](C)C2)cc1 | 939
55 | COc1ccc(NC(=O)N2CCN(c3nc4ccccc4nc3C(F)(F)F)CC2)c(OC)c1 | 1070
56 | CCc1ccc(CNC(=O)C2CCCN(c3nn4c(=O)c5c(nc4s3)CCCC5)C2)cc1 (stereo not drawn) | 983
57 | Cc1ccc(C(=O)NCc2ccc3c(c2)ncn3C(C)C)s1 | 614
58 | CCC(C)NC(=O)Cc1c[nH]c2ncccc12 (stereo not drawn) | 562
59 | Cc1ccccc1-c1ccc(N2CCCC(C(=O)NC(C)CCc3ccccc3)C2)nn1 (stereo not drawn) | 817
60 | N#Cc1cccc(-c2cn3c(n2)N(C(=O)c2ccco2)CCC3)c1 | 645
61 | COc1ccc(Cc2nc3ccccc3n2CC(=O)N2CCCCCC2)cc1OC | 653
62 | Cc1ccc(-n2nc(C)c(S(=O)(=O)N3CCC(C(=O)NC4CC4)CC3)c2C)cc1 | 789
63 | COc1cccc(CNC(=O)Cn2ccnc2-c2ccnc(N3CCCC3)c2)c1 | 577
64 | Cn1cc(-c2cc3n(n2)CCCN3C(=O)CCC(=O)N2CCN(c3ccccc3)CC2)c2ccccc21 | 840
65 | CCOC(=O)c1c(C)c(C(=O)CN(CC2CCCO2)C(=O)c2ccc(F)cc2)c(C)n1CC (stereo not drawn) | 973
66 | Cc1ccc(-c2nnc(-c3nn(C)c4c3CN(S(=O)(=O)c3cccc(C)c3)CC4)o2)cc1 | 998

Row | Structure (SMILES) | RP-LC retention time [s]
67 | CCCNc1cc(N2CCC(CCC(=O)NCc3cc(F)ccc3F)CC2)ncn1 | 684
68 | COc1ccc(N2CCCCn3c2nc2c3c(=O)n(C)c(=O)n2C)cc1 | 759
69 | O=C(Nc1nccs1)C1CC(=O)N(CCc2c[nH]c3ccc(Cl)cc23)C1 (stereo not drawn) | 745
70 | COc1ccc(C2(C(=O)N3CCC(n4c(C)cnc4-c4ccccc4)C3)CC2)cc1 (stereo not drawn) | 661
71 | O=C(Nc1ccc(F)c(Cl)c1)N1CCC(N2CCN(Cc3ccccc3)C2=O)CC1 | 899
72 | CCCCN(C)C(=O)c1cc2sc(C)c(CN3CCCC3)c2[nH]1 | 671
73 | COC[C@@H]1CN(c2cnccn2)C[C@H]1C(=O)NCC1CC1 | 594
74 | O=C(Cc1ccccc1Cl)Nc1nnc(C2CC(=O)N(c3ccc(F)cc3)C2)o1 (stereo not drawn) | 705
75 | Cc1cc(=O)n(CC(=O)Nc2ccc3c(c2)OCO3)c(N2CCCC2)n1 | 629
76 | Cc1ccc(S(=O)(=O)N2CCC(CC(=O)N3CCN(c4ccccn4)CC3)CC2)cc1 | 701
77 | COC(=O)C1=CN(c2cccc(C#N)c2)c2ccc(F)cc2S1(=O)=O | 787
78 | Cc1ccc(C2CC(=O)c3cnc(Nc4nc(C)c5cc(C)c(C)cc5n4)nc3C2)cc1 (stereo not drawn) | 862
79 | O=C1CN(C(=O)Cc2ccccc2Cl)C2(CCCC2)CN1 | 727
80 | Cn1nc(-c2nnc(-c3ccc(F)cc3)o2)c2c1CCN(S(=O)(=O)c1cc(F)cc(F)c1)C2 | 922
81 | Cc1nnc(N2C(=O)C(O)=C(C(=O)c3ccco3)C2c2ccc([N+](=O)[O-])cc2)s1 (stereo not drawn) | 793
82 | CN1c2ccc(F)cc2C(=O)NC12CCN(C(=O)Cc1ccccc1)CC2 | 764
83 | O=C(C1CCC1)N1CCc2sc(S(=O)(=O)Nc3ccc(F)c(Cl)c3)cc2C1 | 948
84 | CCc1nc2cc(-c3noc(-c4ccccc4OC)n3)ccc2o1 | 1080
85 | COc1ccc(N2C(=O)N[C@@H]3C[C@]2(C)Oc2ccc(C)cc23)c(OC)c1 | 870
86 | CCCCNC(=O)c1nc(Nc2cccc(C)c2)c2ccccc2n1 | 858
87 | COCCN(CCOC)Cc1c(C)[nH]c2c(C)c(C)ccc2c1=O | 605
88 | Cc1cc(Nc2nc(N[C@@H](C)c3ccc(F)cc3)c(C#N)cc2F)n[nH]1 | 877
